Laboratory results reported in the NIST ThermoML archive (doi:10.1016/j.tca.2014.09.007).
± gives the expanded uncertainty stated by the source.

Legend:
[1] = DTA
[2] = Molar enthalpy of transition or fusion; settings: Crystal; DSC

Normal melting temperature ([1]; Crystal): 125.90 ± 0.5 °C
Glass transition temperature ([1]; Glass): 25.00 ± 4 °C
Molar enthalpy of transition or fusion [2]: 7.65 ± 0.222 kcal/mol
SMILES: CC(C)(Sc1cc(C(C)(C)C)c(O)c(C(C)(C)C)c1)Sc1cc(C(C)(C)C)c(O)c(C(C)(C)C)c1 [probucol]
